What was measured:
[1] = target: T1, glucagon receptor (GCGR) (Homo sapiens, UniProt P47871); experiment: I125-glucagon binding assay (competition, GCGR membrane fractions); conditions: competition with I125-glucagon 0.0625 nM, membrane fractions of GCGR overexpressed CHO-K1 cells
T1 construct: expressed in transfected cells; host or cells: CHO-K1 cells overexpressing GCGR (membrane fractions)
Method: I^125-Glucagon Binding Assay
The binding affinity of each compound was evaluated by a competition assay with I^125-glucagon. GCGR membrane fractions were obtained from GCGR overexpressed CHO-K1 cells as a stock of 1 mg/ml concentration. To evaluate the IC50 of compounds binding to GCGR, GCGR membrane fractions were treated with compounds with a serial dilution. The membrane fractions were diluted to 7.5 microgram per well in 70 microliter assay buffer contained 50 mM Tris pH 7.4 and 0.5% (w/v) bovine serum albumin and added into 96 wells plate. The membrane fractions were then mixed with 10 microliter diluted compounds. After 5 minutes pre-incubation, 20 microliter I^125 labeled glucagon (Perkin Elmer) was added into each well at the final concentration of 0.0625 nM. The assay mixtures were incubated at 25° C. for 30 minutes and then transferred onto the Millipore MultiScreen GF/B Plate coated with 0.5% (w/v) Polyethyleneimine. The filter plate was washed with wash buffer contained 50 mM Tris pH 7.4 for 2 times, 300 microliter each time. The residual isotope was detected by Hidex CHAMELEON V micro-beta counter and the IC50 value of each compound binding to GCGR was calculated with non-linear regression.

[2] = target: T2, glucagon receptor (GCGR) overexpressed CHO-K1 cells or human primary hepatocytes (Homo sapiens, UniProt P47871); experiment: Glucagon cAMP inhibition assay (Cisbio cAMP Dynamic 2 HTRF); format: cell-based; conditions: inhibition of glucagon (EC50 concentration) induced cAMP production
T2 construct: expressed in transfected cells; host or cells: GCGR overexpressed CHO-K1 cells or human primary hepatocytes (endogenous receptor)
T2 sequence (P47871 26-477): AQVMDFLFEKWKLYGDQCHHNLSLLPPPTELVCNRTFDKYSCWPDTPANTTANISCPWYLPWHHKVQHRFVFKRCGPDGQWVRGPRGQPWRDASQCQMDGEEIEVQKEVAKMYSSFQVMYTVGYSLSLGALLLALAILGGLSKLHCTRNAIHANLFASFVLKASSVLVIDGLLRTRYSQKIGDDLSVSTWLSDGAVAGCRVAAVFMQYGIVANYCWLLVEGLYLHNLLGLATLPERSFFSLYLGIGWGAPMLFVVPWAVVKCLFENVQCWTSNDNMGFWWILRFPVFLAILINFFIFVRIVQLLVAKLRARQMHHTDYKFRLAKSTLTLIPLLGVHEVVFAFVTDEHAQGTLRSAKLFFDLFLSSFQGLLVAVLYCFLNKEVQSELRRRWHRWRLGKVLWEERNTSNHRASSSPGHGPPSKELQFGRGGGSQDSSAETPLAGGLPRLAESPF
Method: Glucagon cAMP Inhibition Assay
Downstream secondary messenger cAMP induced by glucagon was detected by Cisbio cAMP Dynamic 2 kit. Testing compounds were each prepared as a dimethyl sulfoxide (DMSO) solution at the concentration of 10 mM. To evaluate the potency of compounds in inhibiting the cAMP production, glucagon receptor (GCGR) overexpressed CHO-K1 cells or human primary hepatocytes were treated with compounds with a serial dilution. The cells were re-suspended in Hank's Balanced Salt solution (HBSS) contained 0.1% (w/v) bovine serum albumin and 800 nM 3-isobutyl-1-methylxanthine (IBMX) and seeded into low volume, 384 wells white plate. The diluted compounds were then added into the plate for 30 minutes pre-incubation where the final DMSO concentration was 1%. The cells were stimulated with glucagon at the concentration equaled to EC50 (an indicium of the concentration of a drug that gives half-maximal response) for 30 minutes at room temperature. After incubation, lysis buffer contain cAMP antibody and fluorescence acceptor were added into each well for additional 60 minutes incubation. Results were recorded by Molecular Devices SpectraMax Paradigm with the HTRF Detection Cartridges and the IC50 value of each compound in inhibiting the cAMP production was calculated with non-linear regression based on the amount of cAMP production.

T1 sequence (P47871 26-477): as above

| Structure (SMILES) | IC50 [1] | IC50 cAMP [2] |
| --- | --- | --- |
| CCCC[C@@H](COc1ccc(-c2ccc(Cl)cc2Cl)cc1)Nc1ccc(C(=O)NCCC(=O)O)cc1 [Compound 1-17, (S)-3-(4-((1-((2′,4′-dichloro-[1,1′-biphenyl]-4-yl)oxy)hexan-2-yl)amino)benzamido)propanoic Acid] | 34 nM | 864.4 nM |
| CCCC[C@@H](COc1ccc(-c2ccc(Cl)cc2Cl)cc1)Nc1ccc(C(=O)NCc2nnn[nH]2)cc1 [Compound 1-18, (S)—N-((1H-tetrazol-5-yl)methyl)-4-((1-((2′,4′-dichloro-[1,1′-biphenyl]-4-yl)oxy)hexan-2-yl)amino)benzamide] | 31 nM | 1564 nM |
| CCCC[C@@H](COc1ccc(-c2ccc(C(F)(F)F)cc2Cl)cc1)Nc1ccc(C(=O)NCc2nnn[nH]2)cc1 [Compound 1-20, (S)—N-((1H-tetrazol-5-yl)methyl)-4-((1-((2′-chloro-4′-(trifluoromethyl)-[1,1′-biphenyl]-4-yl)oxy)hexan-2-yl)amino)benzamide] | 96 nM | 524 nM |
| CC(C)[C@@H](COc1ccc(-c2ccc(N(C)C)cc2)cc1)Nc1ccc(C(=O)NC[C@@H](O)C(=O)O)cc1 [Compound 1-21, (R)-3-(4-(((S)-1-((4′-(dimethylamino)-[1,1′-biphenyl]-4-yl)oxy)-3-methylbutan-2-yl)amino)benzamido)-2-hydroxypropanoic Acid] | > 30000 nM | >30000 nM |
| CC(C)[C@@H](COc1ccc(-c2ccc(C(F)(F)F)nn2)cc1)Nc1ccc(C(=O)NCCC(=O)O)cc1 [Compound 1-29, (S)-3-(4-((3-methyl-1-(4-(6-(trifluoromethyl)pyridazin-3-yl)phenoxy)butan-2-yl)amino)benzamido)propanoic Acid] | 2790 nM | >30000 nM |
| CCOC(=O)CCNC(=O)c1ccc(N[C@H](COc2ccc(-c3nc4ccccc4s3)cc2)C(C)C)cc1 [Compound 1-30] | 7630 nM | 1214 nM |
| COC(=O)CCNC(=O)c1ccc(N[C@H](COc2ccc(-c3nc4ccccc4s3)cc2)C(C)C)cc1 [Compound 1-31, Methyl (S)-3-(4-((1-(4-(benzo[d]thiazol-2-yl)phenoxy)-3-methylbutan-2-yl)amino)benzamido)propanoate] | 5770 nM | 83 nM |
| CC(C)[C@@H](COc1ccc(-c2ccc(C(F)(F)F)cc2F)cc1)Nc1ccc(C(=O)NCCS(=O)(=O)O)cc1 [Compound 1-33, (S)-2-(4-((1-((2′-fluoro-4′-(trifluoromethyl)-[1,1′-biphenyl]-4-yl)oxy)-3-methylbutan-2-yl)amino)benzamido)ethane-1-sulfonic Acid] | 1900 nM | 3767 nM |
| CC(C)[C@H](COc1ccc(-c2cc3ccccc3o2)cc1)Nc1ccc(C(=O)NCCC(=O)O)cc1 [Compound 1-34, (R)-3-(4-((1-(4-(benzofuran-2-yl)phenoxy)-3-methylbutan-2-yl)amino)benzamido) propanoic Acid] | 113 nM | 238.7 nM |
| CC(C)(C)[C@@H](COc1ccc(-c2ccc(Cl)cc2Cl)cc1)Nc1ccc(C(=O)NCCC(=O)O)cc1 [Compound 1-36, (S)-3-(4-((1-((2′,4′-dichloro-[1,1′-biphenyl]-4-yl)oxy)-3,3-dimethylbutan-2-yl)amino)benzamido)propanoic Acid] | 141 nM | 243 nM |
| CC(C)[C@@H](COc1ccc(-c2ccc(N(C)C)cc2Cl)cc1)Nc1ccc(C(=O)NCCC(=O)O)cc1 [Compound 1-37, (S)-3-(4-((1-((2′-chloro-4′-(dimethylamino)-[1,1′-biphenyl]-4-yl)oxy)-3-methylbutan-2-yl)amino)benzamido)propanoic Acid] | 372 nM | 376 nM |
| CC[C@H](C)[C@@H](COc1ccc(-c2ccc(OC)cc2Cl)cc1)Nc1ccc(C(=O)NCCC(=O)O)cc1 [Compound 1-38, 3-(4-(((2S,3S)-1-((2′-chloro-4′-methoxy-[1,1′-biphenyl]-4-yl)oxy)-3-methylpentan-2-yl)amino)benzamido)propanoic Acid] | 172 nM | 203 nM |
| CC(C)[C@@H](COc1ccc(-c2cn3ccccc3n2)cc1)Nc1ccc(C(=O)NCCC(=O)O)cc1 [Compound 1-39, (S)-3-(4-((1-(4-(imidazo[1,2-a]pyridin-2-yl)phenoxy)-3-methylbutan-2-yl)amino)benzamido)propanoic Acid] | 3810 nM | 17895 nM |
| CC(C)(C)[C@@H](COc1ccc(-c2cc3ccccc3o2)cc1)Nc1ccc(C(=O)NCCC(=O)O)cc1 [Compound 1-40, (S)-3-(4-((1-(4-(benzofuran-2-yl)phenoxy)-3,3-dimethylbutan-2-yl)amino)benzamido)propanoic Acid] | 195 nM | 235.3 nM |

The remaining lines, values ahead:

| IC50 [1] | IC50 cAMP [2] | Structure (SMILES) |
| --- | --- | --- |
| 211 nM | 338.8 nM | CCCC[C@@H](COc1ccc(-c2ccc(C(F)(F)F)cc2)cc1)Nc1ccc(C(=O)NCCC(=O)O)cc1 [Compound 1-15, (S)-3-(4-((1-((4′-(trifluoromethyl)-[1,1′-biphenyl]-4-yl)oxy)hexan-2-yl)amino)benzamido)propanoic Acid] |
| 52 nM | 948.8 nM | CCCC[C@@H](COc1ccc(-c2ccc(C(F)(F)F)cc2)cc1)Nc1ccc(C(=O)NCc2nnn[nH]2)cc1 [Compound 1-16, (S)—N-((1H-tetrazol-5-yl)methyl)-4-((1-((4′-(trifluoromethyl)-[1,1′-biphenyl]-4-yl)oxy)hexan-2-yl)amino)benzamide] |
| 11 nM | 93 nM | CCCC[C@@H](COc1ccc(-c2ccc(C(F)(F)F)cc2Cl)cc1)Nc1ccc(C(=O)NCCC(=O)O)cc1 [Compound 1-19, (S)-3-(4-((1-((2′-chloro-4′-(trifluoromethyl)-[1,1′-biphenyl]-4-yl)oxy)hexan-2-yl)amino)benzamido)propanoic Acid] |
| 70 nM | 14.2 nM | CC(C)[C@@H](COc1ccc(-c2ccc(C(F)(F)F)cc2Cl)cc1)Nc1ccc(C(=O)NCCC(=O)O)cc1 [Compound 1-22, (S)-3-(4-((1-((2′-chloro-4′-(trifluoromethyl)-[1,1′-biphenyl]-4-yl)oxy)-3-methylbutan-2-yl)amino)benzamido)propanoic Acid] |
| 148 nM | 39.8 nM | O=C(O)CCNC(=O)c1ccc(NC(COc2ccc(-c3cc4ccccc4o3)cc2)c2ccccc2)cc1 (centres unmarked) [Compound 1-23, 3-(4-((2-(4-(benzofuran-2-yl)phenoxy)-1-phenylethyl)amino)benzamido) propanoic Acid] |
| 134 nM | 187.5 nM | CC(C)[C@@H](COc1ccc(-c2ccc(C(F)(F)F)cn2)cc1)Nc1ccc(C(=O)NCCC(=O)O)cc1 [Compound 1-24, (S)-3-(4-((3-methyl-1-(4-(5-(trifluoromethyl)pyridin-2-yl)phenoxy)butan-2-yl)amino)benzamido)propanoic Acid] |
| 44 nM | 90.4 nM | CC(C)[C@@H](COc1ccc(-c2ccc(C(F)(F)F)cc2F)cc1)Nc1ccc(C(=O)NCCC(=O)O)cc1 [Compound 1-25] |
| 108 nM | 96.5 nM | CCCC[C@@H](COc1ccc(-c2ccc(C(F)(F)F)cc2F)cc1)Nc1ccc(C(=O)NCCC(=O)O)cc1 [Compound 1-27, (S)-3-(4-((1-((2′-fluoro-4′-(trifluoromethyl)-[1,1′-biphenyl]-4-yl)oxy)hexan-2-yl)amino)benzamido)propanoic Acid] |
| 150 nM | 287.7 nM | O=C(O)CCNC(=O)c1ccc(NC(COc2ccc(-c3ccc(C(F)(F)F)cc3)cc2)c2ccccc2)cc1 (centres unmarked) [Compound 1-28, 3-(4-((1-phenyl-2-((4′-(trifluoromethyl)-[1,1′-biphenyl]-4-yl)oxy)ethyl)amino)benzamido)propanoic Acid] |
| 57 nM | 152 nM | CC(C)[C@@H](COc1ccc(-c2nc3ccccc3s2)cc1)Nc1ccc(C(=O)NCCC(=O)O)cc1 [Compound 1-32, (S)-3-(4-((1-(4-(benzo[d]thiazol-2-yl)phenoxy)-3-methylbutan-2-yl)amino)benzamido)propanoic Acid] |
| 145 nM | 209.3 nM | CC(C)[C@H](COc1ccc(-c2ccc(C(F)(F)F)cc2Cl)cc1)Nc1ccc(C(=O)NCCC(=O)O)cc1 [Compound 1-35] |
